We go through two molecules from publication PMC12053652, “Transport and inhibition mechanisms of human creatine transporter” (Cell Discovery, 2025).

What is called IC50 is the concentration at which inhibition is half-maximal. A lower IC50 goes with greater potency in that assay. Broadly, the Km is the concentration of substrate that gives half-maximal velocity.

Data set [1] deals with T1, human creatine transporter (CRT) (Homo sapiens, UniProt P48029).
T1 construct: gene SLC6A8; full-length wild-type
T1 sequence (P48029 1-635): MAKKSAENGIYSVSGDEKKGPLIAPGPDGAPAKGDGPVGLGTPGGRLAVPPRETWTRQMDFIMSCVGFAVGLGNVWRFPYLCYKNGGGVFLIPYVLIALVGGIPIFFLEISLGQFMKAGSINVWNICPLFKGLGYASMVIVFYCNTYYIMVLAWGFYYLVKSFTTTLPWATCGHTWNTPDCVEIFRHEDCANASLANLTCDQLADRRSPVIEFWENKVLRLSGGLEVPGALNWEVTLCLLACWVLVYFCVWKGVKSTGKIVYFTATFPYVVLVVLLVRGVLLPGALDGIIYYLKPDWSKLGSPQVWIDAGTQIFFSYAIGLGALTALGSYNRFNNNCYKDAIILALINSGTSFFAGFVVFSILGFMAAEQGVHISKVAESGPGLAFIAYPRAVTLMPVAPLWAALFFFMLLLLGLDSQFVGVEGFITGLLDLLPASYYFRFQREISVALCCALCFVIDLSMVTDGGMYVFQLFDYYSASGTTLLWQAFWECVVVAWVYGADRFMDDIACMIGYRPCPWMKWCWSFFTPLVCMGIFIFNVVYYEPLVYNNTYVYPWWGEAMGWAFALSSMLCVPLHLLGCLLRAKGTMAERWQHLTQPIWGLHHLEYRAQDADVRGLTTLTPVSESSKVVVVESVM
In words: cryo-EM structure ([…] Å); IC50 from […]creatine uptake inhibition in HEK293 cells. The format is cell-based.

Substrate in data set [2]: CN(CC(=O)O)C(=N)N
In words: cells, lysate or membranes. It counts as cell-based, Homo sapiens. The following applies: Na+ and Cl- (Na+[…] and Cl- in the structure) central binding site; Tyr148, Ser417, Ala69, Phe315, Gly73; guanidine group surrounded by Phe68, Tyr148, Phe315; contacts Na+[…].

In data set [1], `N=C(N)NCCC(=O)O` [RGX, RGX-202] returned an IC50 of 53 µM.

B1: human creatine transporter (CRT) (Homo sapiens) (protein)
chain: MAKKSAENGIYSVSGDEKKGPLIAPGPDGAPAKGDGPVGLGTPGGRLAVPPRETWTRQMDFIMSCVGFAVGLGNVWRFPYLCYKNGGGVFLIPYVLIALVGGIPIFFLEISLGQFMKAGSINVWNICPLFKGLGYASMVIVFYCNTYYIMVLAWGFYYLVKSFTTTLPWATCGHTWNTPDCVEIFRHEDCANASLANLTCDQLADRRSPVIEFWENKVLRLSGGLEVPGALNWEVTLCLLACWVLVYFCVWKGVKSTGKIVYFTATFPYVVLVVLLVRGVLLPGALDGIIYYLKPDWSKLGSPQVWIDAGTQIFFSYAIGLGALTALGSYNRFNNNCYKDAIILALINSGTSFFAGFVVFSILGFMAAEQGVHISKVAESGPGLAFIAYPRAVTLMPVAPLWAALFFFMLLLLGLDSQFVGVEGFITGLLDLLPASYYFRFQREISVALCCALCFVIDLSMVTDGGMYVFQLFDYYSASGTTLLWQAFWECVVVAWVYGADRFMDDIACMIGYRPCPWMKWCWSFFTPLVCMGIFIFNVVYYEPLVYNNTYVYPWWGEAMGWAFALSSMLCVPLHLLGCLLRAKGTMAERWQHLTQPIWGLHHLEYRAQDADVRGLTTLTPVSESSKVVVVESVM
notes: full-length wild-type
On to B1, for which the Km in data set [2] was 106.3 µM.
